Values of other authors in patent US10603272B2, “Stimulation of appetite and treatment of anorexia in dogs and cats” (Kindred Biosciences, Inc., priority 2015, dated 2020).

solubility in water: insoluble in water
Compound: CN1CCN2c3ncccc3Cc3ccccc3C2C1 (stereo not shown) [mirtazapine]
